Here are results for ten molecules from patent US6967205B1, “Compounds with antibacterial and antiparasitic properties” (New Pharma Research Sweden AB, priority 1999, dated 2005).

In brackets after ≈: the same amount, converted by molar mass.

For one assay, the system named is Bacillus cereus. In words: M.I.C. by broth dilution method (NCCLS 1988), gram-positive bacteria. The class given is cell-based. The settings on record: in vitro broth dilution. The protocol:
(§1) The antibacterial activity of the present compounds was investigated by in vitro evaluation of their M.I.C. (Minimum Inhibitory Concentration) values. The evaluation was conducted in complete accordance with the “Broth dilution method”, as outlined by the U.S. National Committee for Clinical Laboratory Standards “NCCLS 1988”.
(§2) Solutions of the present compounds were prepared by dissolving 0.01 g of a test compound in either 10% KOH (aq) or a 10% KOH/DMF mixture, after which sterile, distilled H2O was added up to a total volume of 10 ml, thereby yielding a test compound concentration of 1 000 μg/ml.
(§3) In this evaluation, the antibacterial activity of the present compounds and enrofloxacin as reference compound was tested against seven strains of gram-positive bacteria, namely Bacillus subtilus (ATCC 6633), Bacillus cereus, Streptococcus faecium, Micrococcus Luteus (ATCC 9341), Staph. aureus (ATCC 29737), Staph. epidermidis (ATCC 12228) and Staphylococcus (ATCC 6538).
For orientation: Broth dilution looks for growth in wells or tubes with falling amounts of substance.

The test system of assay [1] is Bacillus subtilus (ATCC 6633). The assay is described as above. The settings on record: ATCC6633, in vitro broth dilution. The class given is cell-based. The protocol: as §1, §2, §3
In assay [2] the test system is Micrococcus Luteus (ATCC 9341). The assay is described as above. The class given is cell-based. The settings on record: ATCC9341, in vitro broth dilution, read-out: M.I.C. values Microc. Luteus. As to the method: as §1, §2, §3
The test system of assay [3] is Staph. aureus (ATCC 29737). The description is as above. Type of assay: cell-based. The settings on record: Staphylococcus aureus, ATCC29737, in vitro broth dilution. As to the method:
as §1, §2, §3

Assay [4] has as its system Staph. epidermidis (ATCC 12228). Described as above. The class given is cell-based. The settings on record: Staphylococcus epidermidis, ATCC12228, in vitro broth dilution. As to the method:
as §1, §2, §3

Assay [5] has as its system Staphylococcus (ATCC 6538). The description is as above. The class given is cell-based. The settings on record: ATCC6538, in vitro broth dilution, read-out: M.I.C. values Staph. (ATCC 6538). The protocol: as §1, §2, §3
Another assay deals with Streptococcus faecium. The assay is described as above. Type of assay: cell-based. The settings on record: Enterococcus faecium, in vitro broth dilution, read-out: M.I.C. values Streptoc. faecium. As to the method:
as §1, §2, §3

The test system of assay [6] is Eimeria acervulina, E. maxima, E. necatrix, E. tenella and E. brunetti. Kind of assay: Prophylactic anticoccidial activity in chickens of Habbared X breed (5 Eimeria strains). Type of assay: in vivo. The settings on record: drug in feed (JA 39, JA 42 100 ppm; Coxistac 60 ppm). The protocol: The anticoccidial activity of the present compounds as prophylactic agents was evaluated in vivo on […] one day old (1 day after hatch) chickens of Habbared X breed. The chickens were divided into four groups of 20 birds each, and each group was located in a separate pen (1 m×1 m). The chickens were then fed with unmedicated food up to day 7 after hatch. Fresh water was supplied ad libitum .
On day 8 after hatch, the four groups were fed as follows (1 ppm=1 mg drug/kg feed): • Group #1: feed containing JA 39 (100 ppm); • Group #2: feed containing JA 42 (100 ppm); • Group #3: feed containing Coxistac (60 ppm), a known anticoccidial agent (see U.S. Pat. No. 3,857,948);
Group #4: feed containing no drug (control group).
The chickens were fed as above on day 8 and 9 after hatch. On day 10 after hatch, each chicken was infected orally by 6 000-7 000 oocysts containing a mixture of 5 mature sporulated strains, namely Eimeria acervulina, E. maxima, E. necatrix, E. tenella and E. brunetti. The groups #1-3 received drug as above from day 10 to 21 after hatch.
From day 14 to 21 after hatch, fresh fecal droplets were collected and examined daily. The average number of oocysts/g faeces was then calculated in accordance with the so-called Mc-Master technique (Soulsby, E. J., Helminths, Arthropods & Protozoa of domesticated animals, p. 789, 6th Ed., Williams & Wilkins Co. Baltimore (USA), Tindall & Cassell Ltd., London, 1968). The final weight of and mean total amount of feed consumed by each bird were also examined, and the results are summarized in Table 8 hereinbelow.

As for `Cc1ccc(S(=O)(=O)N2CCN(c3cc4c(cc3F)c(=O)c(C(=O)O)cn4C3CC3)CC2)cc1` [JA 2, 1-cyclopropyl-6-fluoro-7-{4-[(4-methylphenyl)sulfonyl]-1-piperazinyl}-4-oxo-1,4-dihydro-3-quinolinecarboxylic acid], the MIC in the assay on Bacillus cereus is 0.06 µg/mL (≈ 0.124 µM); in assay [1], 0.12 µg/mL (≈ 0.247 µM); in assay [2], 0.5 µg/mL (≈ 1.03 µM); in assay [3], 0.12 µg/mL (≈ 0.247 µM); in assay [4], 0.06 µg/mL (≈ 0.124 µM); in assay [5], 0.03 µg/mL (≈ 0.0618 µM). Besides, the MIC in the assay with Streptococcus faecium turned out to be 0.5 µg/mL (≈ 1.03 µM).

On to `O=C(O)c1cn(C2CC2)c2cc(N3CCN(c4ccc(Br)cn4)CC3)c(F)cc2c1=O` [JA 40, 7-[4-(5-bromo-2-pyridinyl)-1-piperazinyl]-1-cyclopropyl-6-fluoro-4-oxo-1,4-dihydro-3-quinolinecarboxylic acid], for which the MIC in the assay on Bacillus cereus stood at 0.06 µg/mL (≈ 0.123 µM); in assay [1], 0.12 µg/mL (≈ 0.246 µM); in assay [2] it was 2 µg/mL (≈ 4.1 µM); in assay [3] it was 0.25 µg/mL (≈ 0.513 µM); in assay [4] it was 0.12 µg/mL (≈ 0.246 µM); in assay [5], 0.06 µg/mL (≈ 0.123 µM). The MIC in the assay on Streptococcus faecium turned out to be 1 µg/mL (≈ 2.05 µM).

For `O=C(O)c1cn(C2CC2)c2cc(N(CCN3CCCCC3)C(=O)c3cccs3)c(F)cc2c1=O` [JA 128, 1-cyclopropyl-6-fluoro-4-oxo-7-[[2-(1-piperidinyl)ethyl]-(2-thienylcarbonyl)amino]-1,4-dihydro-3-quinolinecarboxylic acid], the MIC turned out to be 0.06 µg/mL (≈ 0.124 µM) in the assay on Bacillus cereus; 0.12 µg/mL (≈ 0.248 µM) in assay [1]; 2 µg/mL (≈ 4.14 µM) in assay [2]; 0.12 µg/mL (≈ 0.248 µM) in assay [3]; 0.06 µg/mL (≈ 0.124 µM) in assay [4]; 0.12 µg/mL (≈ 0.248 µM) in assay [5]. Also, the MIC in the assay on Streptococcus faecium was 1 µg/mL (≈ 2.07 µM).

With `O=C(O)c1ccc(CNc2cc3c(cc2F)c(=O)c(C(=O)O)cn3C2CC2)cc1` [JA 70, 7-[(4-carboxybenzyl)amino]-1-cyclopropyl-6-fluoro-4-oxo-1,4-dihydro-3-quinolinecarboxylic acid], the MIC against Bacillus cereus was found to be 0.12 µg/mL (≈ 0.303 µM); in assay [1], 0.25 µg/mL (≈ 0.631 µM); in assay [2], 1 µg/mL (≈ 2.52 µM); in assay [3], 0.12 µg/mL (≈ 0.303 µM); in assay [4] it was 0.25 µg/mL (≈ 0.631 µM); in assay [5] it was 0.12 µg/mL (≈ 0.303 µM). For the same molecule, the MIC in the assay with Streptococcus faecium is 2 µg/mL (≈ 5.05 µM).

In the case of `COCC(C)N(c1cc2c(cc1F)c(=O)c(C(=O)O)cn2C1CC1)S(=O)(=O)c1ccc([N+](=O)[O-])cc1` (stereo not shown) [JA 149, 1-cyclopropyl-6-fluoro-7-{(2-methoxy-1-methylethyl)[(4-nitrophenyl)sulfonyl]amino}-4-oxo-1,4-dihydro-3-quinolinecarboxylic acid], the MIC with Bacillus cereus was 0.12 µg/mL (≈ 0.231 µM); in assay [1], 0.12 µg/mL (≈ 0.231 µM); in assay [2], 2 µg/mL (≈ 3.85 µM); in assay [3], 0.12 µg/mL (≈ 0.231 µM); in assay [4] it was 0.12 µg/mL (≈ 0.231 µM); in assay [5], 0.12 µg/mL (≈ 0.231 µM). For the same molecule, in the assay on Streptococcus faecium, the MIC was determined as 2 µg/mL (≈ 3.85 µM).

As for `CC[C@@H](C(=O)[C@@H](C)[C@@H](O)[C@H](C)[C@@H]1O[C@@H]([C@@H](CC)C(=O)O)CC[C@@H]1C)[C@H]1O[C@]2(C=C[C@@H](O)[C@]3(CC[C@@](C)([C@H]4CC[C@](O)(CC)[C@H](C)O4)O3)O2)[C@H](C)C[C@@H]1C` [Coxistac, reference compound], in assay [6] (day 14 after hatch, infected day 10), the “Average number of Eimeria spp. oocysts/g faeces, day after hatch 14” value is given as 0.0 oocysts/g faeces. Moreover, the “Average number of Eimeria spp. oocysts/g faeces, day after hatch 15” value in assay [6] (day 15 after hatch, infected day 10) came to 3000 oocysts/g faeces. Moreover, the “Average number of Eimeria spp. oocysts/g faeces, day after hatch 16” value in assay [6] (day 16 after hatch, infected day 10) is 4000 oocysts/g faeces. In assay [6] (day 17 after hatch, infected day 10), the “Average number of Eimeria spp. oocysts/g faeces, day after hatch 17” value was 7000 oocysts/g faeces. Besides, the “Average number of Eimeria spp. oocysts/g faeces, day after hatch 18” value in assay [6] (day 18 after hatch, infected day 10) worked out at 2000 oocysts/g faeces. For the same molecule, in assay [6] (day 19 after hatch, infected day 10), the “Average number of Eimeria spp. oocysts/g faeces, day after hatch 19” value stood at 2000 oocysts/g faeces. For the same molecule, the “Average number of Eimeria spp. oocysts/g faeces, day after hatch 21” value in assay [6] (day 21 after hatch, infected day 10) came out at 0.0 oocysts/g faeces. The “Mean body weight” value in assay [6] (final weight, infected chickens) is given as 62.0 g. In addition, in assay [6] (mean total feed per bird, infected chickens), the “Mean amount of feed consumed” value turned out to be 120 g. Moreover, the “Average number of Eimeria spp. oocysts/g faeces, Total” value in assay [6] (total of days 14-21 after hatch) is 18000 oocysts/g faeces.

Take `CN(CCCN)CCCNc1cc2c(cc1F)c(=O)c(C(=O)O)cn2C1CC1` [JA 102, 7-({3-[(3-aminopropyl)(methyl)amino]propyl}amino)-1-cyclopropyl-6-fluoro-4-oxo-1,4-dihydro-3-quinolinecarboxylic acid]: the MIC is 0.06 µg/mL (≈ 0.154 µM) against Bacillus cereus; 0.12 µg/mL (≈ 0.307 µM) in assay [1]; 2 µg/mL (≈ 5.12 µM) in assay [2]; 0.06 µg/mL (≈ 0.154 µM) in assay [3]; 0.12 µg/mL (≈ 0.307 µM) in assay [4]; 0.12 µg/mL (≈ 0.307 µM) in assay [5]. Moreover, in the assay with Streptococcus faecium, the MIC came to 1 µg/mL (≈ 2.56 µM).

For `O=C(O)c1cn(C2CC2)c2cc(N(CC3CCCO3)S(=O)(=O)C(F)(F)F)c(F)cc2c1=O` (stereo not shown) [JA 138, 1-cyclopropyl-6-fluoro-4-oxo-7-{(tetrahydro-2-furanylmethyl)[(trifluoromethyl)sulfonyl]amino}-1,4-dihydro-3-quinolinecarboxylic acid], the MIC in the assay on Bacillus cereus was 0.06 µg/mL (≈ 0.125 µM); in assay [1], 0.12 µg/mL (≈ 0.251 µM); in assay [2], 2 µg/mL (≈ 4.18 µM); in assay [3], 0.25 µg/mL (≈ 0.523 µM); in assay [4], 0.12 µg/mL (≈ 0.251 µM); in assay [5], 0.12 µg/mL (≈ 0.251 µM). Further, the MIC in the assay with Streptococcus faecium was determined as 1 µg/mL (≈ 2.09 µM).

Regarding `O=C(O)c1cn(C2CC2)c2cc(N(CC3CCCO3)C(=O)c3cccs3)c(F)cc2c1=O` (stereo not shown) [JA 140, 1-cyclopropyl-6-fluoro-4-oxo-7-[(tetrahydro-2-furanylmethyl)(2-thienylcarbonyl)amino]-1,4-dihydro-3-quinolinecarboxylic acid], the MIC in the assay on Bacillus cereus stood at 0.06 µg/mL (≈ 0.131 µM); in assay [1], 0.06 µg/mL (≈ 0.131 µM); in assay [2] it was 1 µg/mL (≈ 2.19 µM); in assay [3] it was 0.12 µg/mL (≈ 0.263 µM); in assay [4], 0.12 µg/mL (≈ 0.263 µM); in assay [5] it was 0.06 µg/mL (≈ 0.131 µM). Besides, the MIC with Streptococcus faecium is 0.5 µg/mL (≈ 1.1 µM).

For `COc1ccc(S(=O)(=O)N(CC2CCCO2)c2cc3c(cc2F)c(=O)c(C(=O)O)cn3C2CC2)cc1` (stereo not shown) [JA 135, 1-cyclopropyl-6-fluoro-7-[[(4-methoxyphenyl)sulfonyl](tetrahydro-2-furanylmethyl)amino]-4-oxo-1,4-dihydro-3-quinolinecarboxylic acid], the MIC in the assay with Bacillus cereus amounted to 0.06 µg/mL (≈ 0.116 µM); in assay [1], 0.12 µg/mL (≈ 0.232 µM); in assay [2], 2 µg/mL (≈ 3.87 µM); in assay [3], 0.12 µg/mL (≈ 0.232 µM); in assay [4] it was 0.12 µg/mL (≈ 0.232 µM); in assay [5], 0.12 µg/mL (≈ 0.232 µM). Moreover, the MIC in the assay on Streptococcus faecium stood at 0.5 µg/mL (≈ 0.968 µM).
